Measurements from patent publication US20210346321A1, “PHARMACEUTICAL COMPOSITION CONTAINING ALKYL CARBAMOYL NAPHTHALENYLOXY OCTENOYL HYDROXYAMIDE PHOSPHATE, TARTRATE OR COMBINATION THEREOF, AND PREPARATION METHOD THEREFOR” (CRYSTALGENOMICS, INC., priority 2018, published 2021).
“Also recorded” adds a separate entry of the source.

Experiments:
Type in all cases: physicochemical
[1] = Evaluation of change in moisture content (Karl Fischer); conditions: open state, room temperature (20 to 25° C., 50% or less), after 3 days versus initial
Text: (§1) In order to evaluate the stability of the compound according to the present invention, an alkylcarbamoyl naphthalenyloxy octenoyl hydroxyamide compound was used in Comparative Example 1, an alkyl carbamoyl naphthalenyloxy octenoyl hydroxyamide tartrate was used in Example 13 and alkylcarbamoyl naphthalenyloxy octenoyl hydroxyamide phosphate was used in Example 14. As alkylcarbamoyl naphthalenyloxy octenoyl hydroxyamide, (E)-N1-(3-(dimethylamino)propyl)-N8-hydroxy-2-((naphthalen-1-yloxy)methyl)-2-octenediamide compound was used. Evaluation of stability was conducted by observing the change with storage time under room temperature (20-25° C., 50% or less), long-term (25±2° C. and 60±5% RH), accelerated (40±2° C. and 75±5% RH) and severe (60±2° C.) conditions.
In order to evaluate the change in moisture content, the compounds according to Examples and Comparative Examples were stored in an open state at room temperature (20 to 25° C., 50% or less), and the change was measured by the difference between the initial moisture content and the moisture content after 3 days, and the results are shown in FIG. 4. Moisture content was measured according to the volumetric titration method among methods of determining the water content (Karl Fischer method) of the general test methods of the Korean Pharmacopoeia (measurement equipment: 701KF_Metrohm).

[2] = Evaluation of change in appearance on storage; conditions: for change in appearance: open state storage, all conditions
Text: as §1
In order to evaluate the change in appearance of the compounds according to Comparative Examples and Examples, each compound was stored in an open state according to the conditions shown in Table 13 below, and then the change in appearance was observed.

[3] = Comparison of the amount of change in related substances of the compounds; conditions: for increase in the amount of related substances: open state at room temperature for 3 days
Protocol: In order to evaluate the amount of change in the related substances of Example 12, the composition of Example 12 was placed in an accelerated condition chamber ([…], 75%±5), and the amount of related substance produced was measured for 6 months. For the measurement of the amount of related substances produced, the composition of Example 12 was pretreated and then tested according to the liquid chromatography method of the general test method of the Korean Pharmacopoeia to determine peak areas of the produced related substances (individual related substance 0.2% or less, total related substances 1.0%, measuring equipment: HPLC LC-2030C_Shimadzu). In Table 12, the amount of related substances produced is expressed in %. In addition, FIG. 3 is a result of measuring the related substance at 28 minutes under the accelerated condition, and the reference value is 0.2%.
In order to evaluate the amount of change in related substances of the compounds according to Comparative Examples and Examples, each compound was stored in an open state at room temperature for 3 days, and then the amount of related substances produced was measured in the same manner as in Experimental Example 3 and the results are shown in FIG. 5.
In addition, changes in the amount of related substances produced according to temperature and storage period are shown in FIGS. 6 and 7 for the compounds according to Examples 13 and 14.

[4] = Evaluation of change in content on storage (HPLC)
Text: as §1
In order to evaluate the change in the content of the compounds according to Examples, each compound was stored in an open state or in a polyethylene bottle packaging (silica gel added) to measure the change in content. For measurement of content, compounds of Comparative Examples and Examples were pretreated and then the solutions were tested according to the liquid chromatography method of the general test methods of the Korean Pharmacopoeia to determine the peak area of CG200745 (measurement equipment: HPLC LC-2030C_Shimadzu). The content standard is to contain CG200745 in an amount corresponding to 95.0-105.5% of the indicated amount according to the standards and test methods of the present applicant.
The results measured in the open state are shown in Table 14 below, and the results measured in the bottle packaging are shown in Table 15 below.

[5] = open state, 1 day, Accelerated (40±2° C., 75±5% RH)
[6] = open state, 1 day, Long-term (25±2° C., 60±5% RH)
[7] = bottle packaging, 1 day, Accelerated
[8] = bottle packaging, 1 day, Long-term
[9] = bottle packaging, 1 day, Room temperature
[10] = bottle packaging, 1 day, Severe
[11] = bottle packaging, 3 days, Accelerated
[12] = bottle packaging, 3 days, Long-term
[13] = bottle packaging, 3 days, Room temperature
[14] = bottle packaging, 7 days, Accelerated
[15] = bottle packaging, 7 days, Long-term
[16] = bottle packaging, 7 days, Room temperature
[17] = polyethylene bottle packaging (silica gel added), Initial
[18] = open state, 7 days, Room temperature (20-25° C., 50% or less)

Compound: CN(C)CCCNC(=O)/C(=C/CCCCC(=O)NO)COc1cccc2ccccc12 [Comparative Example 1, (E)-N1-(3-(dimethylamino)propyl)-N8-hydroxy-2-((naphthalen-1-yloxy)methyl)-2-octenediamide, reference compound]
- increase in moisture content [1]: about 3%
- appearance ([2]; Initial, listed as Comp. Ex. 1): Foam
- change in appearance [2]: changed from a foam to a highly viscous liquid or gel
- appearance [2, 5]: Gel-like
- appearance [2, 6]: Gel-like
- appearance ([2]; open state, 1 day, Room temperature (20-25° C., 50% or less), listed as Comp. Ex. 1): Gel-like
- appearance ([2]; open state, 1 day, Severe (60±2° C.), listed as Comp. Ex. 1): Gel-like
- increase in the amount of related substances [3]: about 10%
- content of CG200745 [4, 7]: 89.1%
- content of CG200745 [4, 8]: 99.1%
- content of CG200745 [4, 9]: 99.3%
- content of CG200745 [4, 10]: 101.2%
- content of CG200745 [4, 11]: 84.0%
- content of CG200745 [4, 12]: 84.0%
- content of CG200745 [4, 13]: 99.5%
- content of CG200745 [4, 14]: 78.5%
- content of CG200745 [4, 15]: 78.5%
- content of CG200745 [4, 16]: 99.4%
- content of CG200745 ([4]; open state, 1 day, Accelerated, listed as Comp. Ex. 1): 92.3%
- content of CG200745 ([4]; open state, 1 day, Long-term, listed as Comp. Ex. 1): 99.9%
- content of CG200745 ([4]; open state, 1 day, Room temperature, listed as Comp. Ex. 1): 101.0%
- content of CG200745 ([4]; open state, 1 day, Severe, listed as Comp. Ex. 1): 101.1%
- content of CG200745 ([4]; open state, 3 days, Room temperature, listed as Comp. Ex. 1): 101.9%
- content of CG200745 ([4]; open state, 3 days, Severe, listed as Comp. Ex. 1): 97.2%
- content of CG200745 ([4]; open state, 7 days, Room temperature, listed as Comp. Ex. 1): 100.1%
- content of CG200745 ([4]; open state, 7 days, Severe, listed as Comp. Ex. 1): 89.1%
- content of CG200745 ([4]; open state, Initial, listed as Comp. Ex. 1): 98.9%
- content of CG200745 [4, 17]: 98.9%

Compound: CN(C)CCCNC(=O)/C(=C/CCCCC(=O)NO)COc1cccc2ccccc12.O=P(O)(O)O [Example 14, (E)-N1-(3-(dimethylamino)propyl)-N8-hydroxy-2-((naphthalen-1-yloxy)methyl)-2-octenediamide phosphate]
- increase in moisture content [1]: about 0.01%
- appearance ([2]; Initial): Powder
- change in appearance [2]: remained constant regardless of the condition
- appearance [2, 5]: Powder
- appearance [2, 6]: Powder
- appearance ([2]; open state, 1 day, Room temperature (20-25° C., 50% or less)): Powder
- appearance ([2]; open state, 1 day, Severe (60±2° C.)): Powder
- appearance ([2]; open state, 7 days, Accelerated (40±2° C., 75±5% RH)): Powder
- appearance ([2]; open state, 7 days, Long-term (25±2° C., 60±5% RH)): Powder
- appearance [2, 18]: Powder
- appearance ([2]; open state, 7 days, Severe (60±2° C.)): Powder
- increase in the amount of related substances [3]: 0.02%
- amount of related substances produced ([3]; regardless of the storage temperature and period (FIG. 7)): about 0.22%
- content on storage ([4]; all packaging conditions, heating, humidity): kept constant regardless of packaging conditions, heating, and humidity
- content of CG200745 [4, 7]: 101.2%
- content of CG200745 [4, 8]: 103.5%
- content of CG200745 [4, 9]: 98.6%
- content of CG200745 [4, 10]: 101.6%
- content of CG200745 [4, 11]: 100.1%
- content of CG200745 [4, 12]: 99.9%
- content of CG200745 [4, 13]: 98.8%
- content of CG200745 ([4]; bottle packaging, 3 days, Severe): 100.4%
- content of CG200745 [4, 14]: 101.1%
- content of CG200745 [4, 15]: 100.9%
- content of CG200745 [4, 16]: 99.3%
- content of CG200745 ([4]; bottle packaging, 7 days, Severe): 101.4%
- content of CG200745 [4, 17]: 99.5%

Compound: CN(C)CCCNC(=O)/C(=C/CCCCC(=O)NO)COc1cccc2ccccc12 [Example 13, (E)-N1-(3-(dimethylamino)propyl)-N8-hydroxy-2-((naphthalen-1-yloxy)methyl)-2-octenediamide]
- increase in moisture content [1]: 2%
- appearance ([2]; Initial, listed as Ex. 13): Powder
- appearance [2, 5]: Gel-like
- appearance [2, 6]: Gel-like
- appearance ([2]; open state, 1 day, Room temperature (20-25° C., 50% or less), listed as Ex. 13): Powder
- appearance ([2]; open state, 1 day, Severe (60±2° C.), listed as Ex. 13): Powder
- appearance [2, 18]: Powder
- appearance ([2]; open state, 7 days, Severe (60±2° C.), listed as Ex. 13): Powder; also recorded: Discoloration
- amount of related substances produced according to storage temperature ([3]; FIG. 6): maintained within a certain range at a relatively low temperature
- increase in the amount of related substances [3]: 0.05%
- content of CG200745 ([4]; open state, 1 day, Accelerated, listed as Ex. 13): 104.6%
- content of CG200745 ([4]; open state, 1 day, Long-term, listed as Ex. 13): 104.3%
- content of CG200745 ([4]; open state, 1 day, Room temperature, listed as Ex. 13): 103.4%
- content of CG200745 ([4]; open state, 1 day, Severe, listed as Ex. 13): 103.3%
- content of CG200745 ([4]; open state, 3 days, Accelerated): 102.3%
- content of CG200745 ([4]; open state, 3 days, Long-term): 102.6%
- content of CG200745 ([4]; open state, 3 days, Room temperature, listed as Ex. 13): 102.6%
- content of CG200745 ([4]; open state, 3 days, Severe, listed as Ex. 13): 99.6%
- content of CG200745 ([4]; open state, 7 days, Accelerated): 100.7%
- content of CG200745 ([4]; open state, 7 days, Long-term): 99.4%
- content of CG200745 ([4]; open state, 7 days, Room temperature, listed as Ex. 13): 100.0%
- content of CG200745 ([4]; open state, 7 days, Severe, listed as Ex. 13): 102.2%
- content of CG200745 ([4]; open state, Initial, listed as Ex. 13): 99.5%
- content on storage ([4]; under the room temperature condition): maintained at a certain level
